{"source": "patent US20140275183A1", "about": "“AGENT FOR REDUCING SIDE EFFECTS OF KINASE INHIBITOR” (Ajinomoto Co., Inc., priority 2011, published 2014)", "key": {"[1]": {"tested_on": "CDAA diet-induced liver cancer model rats", "test": "CDAA (choline-deficient L-amino acid defined) diet-induced liver cancer model rats, combined intake of sorafenib and BCAA", "assay_type": "in vivo, Fischer 344 rats", "description": "Using CDAA (choline-deficient L-amino acid defined) diet-induced liver cancer model rats, the effects of the combined intake of sorafenib and branched-chain amino acids (BCAA) were investigated. The CDAA diet used a commercially available choline-deficient diet (#518753: Choline deficient and iron supplemented L-amino acid defined rat diet, manufactured by Dyets Inc.).\nSix-week old Fischer 344 rats were divided into a CDAA diet intake group, a sorafenib only intake group, and a BCAA combined intake group (N=15 for each group), and the test diet was provided freely. For the CDAA diet intake group, only the CDAA diet was supplied as the test diet. For the sorafenib only intake group, a CDAA diet mixed with an amount of sorafenib tosylate tablets (Nexavar (a registered trademark) tablets 200 mg, manufactured by Bayer Pharma AG) sufficient to provide an intake of sorafenib of 16 mg/kg/day (800 mg/50 kg/day) (hereafter referred to as the “CDAA/sorafenib diet”) was supplied. For the BCAA combined intake group, a diet prepared by mixing the CDAA/sorafenib diet supplied to the sorafenib only intake group with 2.5% by mass of a BCAA formulation (Livact (a registered trademark) granules, manufactured by Ajinomoto Co., Inc.) (hereafter referred to as the “CDAA/sorafenib/BCAA diet”) was supplied. The weight ratio between isoleucine, leucine and valine in the BCAA formulation was 1:2:1.2 (isoleucine:0.952 g, leucine: 1.904 g, and valine: 1.144 g).\nEach individual was autopsied either at the time of death or after 56 weeks from the start of the test (from supply of the test diet), and the effect of treatment continuation was investigated on the basis of the hepatic fibrosis inhibitory effect, the hepatocarcinogenesis rate and the survival rate.\nFurther, the presence or absence of hepatic fibrosis was determined on the basis of the result of Azan staining of a liver tissue section, and the result of measuring the concentration of HYP (hydroxyproline) within the liver. The presence or absence of hepatocarcinogenesis was evaluated by immunostaining a tissue section of the liver with an antibody to the precancerous marker GST-P (glutathione S-transferase placental form), and inspecting the tissue section for the presence of staining."}, "[2]": {"tested_on": "Huh7 cells", "test": "antitumor action enhancement effect, Huh7 cells implanted subcutaneously in nude mice", "assay_type": "in vivo, BALB/c nude mice", "settings": "sorafenib oral 5 mg/kg for 2 weeks then 30 mg/kg for 5 days, ± feed containing 3% BCAA; three weeks after start; FIG. 3", "procedure": "Huh7 cells were implanted subcutaneously in BALB/c nude mice in an amount of 1×10^7 cell/mouse.\nAfter one week, the mice were split into groups based on tumor diameter, and the groups were subjected to 2 weeks of 5 mg/kg sorafenib oral administration±food supply containing 3% BCAA (with the sorafenib administered 5 days/week).\nIn the third week of administration, the sorafenib dose was increased from 5 mg/kg to 30 mg/kg, and oral administration was continued for 5 days. During this time, supply of the feed containing 3% BCAA was continued.\nThree weeks after the start of administration, the tumor diameter of each group was measured, and the average value+SE for the tumor volume was calculated. The tumor volume was calculated as tumor major axis/2×(minor axis)^2."}, "[3]": {"settings": "sorafenib 16 mg/kg/day in CDAA diet, with or without 2.5% BCAA formulation"}}, "data": [{"smiles": "CNC(=O)c1cc(Oc2ccc(NC(=O)Nc3ccc(Cl)c(C(F)(F)F)c3)cc2)ccn1", "note": "[sorafenib, 4-[4-[[4-chloro-3-(trifluoromethyl)phenyl]carbamoylamino]phenoxy]-N-methylpyridine-2-carboxamide]", "values": [{"measurement": "number of rats in which hepatic fibrosis or precancerous lesions were observed, compared with the CDAA diet intake group", "setting": "[1]; Azan staining, liver HYP, GST-P immunostaining, autopsy at death or after 56 weeks", "result": "fewer"}, {"measurement": "bleeding (side effect)", "setting": "[1]; [3]", "result": "a tendency for bleeding to occur in the gastrointestinal tract, including the anal region, was also observed"}, {"measurement": "loss of appetite (side effect)", "setting": "[1]; [3]", "result": "a loss of appetite due to gastrostenosis was also noted"}, {"measurement": "redness (cutaneous side effect)", "setting": "[1]; [3]", "result": "redness was noted not only on the four legs, but also on the trunk and the skin"}, {"measurement": "degree of shrinkage in the tumor volume compared with the control group", "setting": "[2]", "result": "unchanged"}]}]}
